Test results reported in the Deep4Chem optical property database.

Assay: solvent given as SMILES

O=S1c2ccccc2-c2cc(-c3c4ccccc4cc4ccccc34)ccc21 (stereo not drawn)
emission maximum (in C1CCCCC1): 401.88 nm
emission maximum (in CC#N): 504.43 nm
emission maximum (in ClCCl): 444.61 nm

CN(C)c1ncc2nc(C#N)n(Cc3ccccc3)c2n1
emission maximum (in C1COCCO1): 424 nm
emission maximum (in CC#N): 440 nm
emission maximum (in CO): 456 nm
emission maximum (in ClCCl): 429 nm

CN(C)c1ccc(-c2cc3c(s2)c(C(=O)c2ccccc2)cc(=O)n3Cc2ccccc2)cc1
emission maximum (in CC#N): 521 nm
emission maximum (in ClCCl): 678 nm

C[P+]1(c2ccccc2)C2=C(c3ccccc31)S(=O)(=O)c1ccccc12 (stereo not drawn)
emission maximum (in CC#N): 479 nm
emission maximum (in CCO): 419 nm
emission maximum (in ClCCl): 483 nm

CNc1cc2nc3cc(F)c(F)cc3nc2cc1NC
emission maximum (in CCO): 529 nm

N#Cc1ccc(/C=C2\N=C(c3ccccc3)OC2=O)cc1
emission maximum (in C1COCCO1): 426 nm

Cc1cc(=O)c2c(ccc3ccc(O)cc32)o1
emission maximum (in CC#N): 430 nm

CCc1ccc(/C=N/c2cc(C(C)C)c(O)cc2C)cc1
emission maximum (in C1CCCCC1): 406 nm
emission maximum (in C1CCOC1): 412 nm
emission maximum (in C1COCCO1): 410 nm
emission maximum (in CC#N): 421 nm
emission maximum (in CC(C)(C)O): 414 nm
emission maximum (in CC(C)O): 418 nm
emission maximum (in CCCCCC): 402 nm
emission maximum (in CCCCO): 420 nm
emission maximum (in CCO): 422 nm
emission maximum (in CCOC(C)=O): 412 nm
emission maximum (in CN(C)C=O): 423 nm
emission maximum (in CO): 428 nm
emission maximum (in CS(C)=O): 431 nm
emission maximum (in ClC(Cl)Cl): 415 nm
emission maximum (in ClCCl): 420 nm
emission maximum (in O): 444 nm
emission maximum (in OCCO): 429 nm

c1ccc(-c2nc(-c3ccccc3)nc(-n3c4ccccc4c4cc(-n5c6ccccc6c6ccccc65)ccc43)n2)cc1
emission maximum (in C1CCOC1): 535.43 nm
emission maximum (in Cc1ccccc1): 502.82 nm

CC(C)(C)c1ccc2c(c1)c1cc(C(C)(C)C)ccc1n2-c1ccc(-c2cccs2)s1
emission maximum (in ClCCl): 417 nm

CC(C)(C)NS(=O)(=O)c1ccc2c(c1)C(=O)/C(=C1\Sc3ccc(S(=O)(=O)NC(C)(C)C)cc3C1=O)S2
emission maximum (in C1COCCO1): 589 nm
emission maximum (in CN(C)C=O): 604 nm
emission maximum (in CS(C)=O): 618 nm

CN(C)c1ccc2c(-c3ccc(Br)cc3)c3ccc(=[N+](C)C)cc-3oc2c1
emission maximum (in CCO): 579 nm

CN(C)c1ccc(C2=Nc3scc[n+]3[B-](F)(F)O2)cc1
emission maximum (in C1CCOC1): 454 nm
emission maximum (in CC#N): 469 nm
emission maximum (in Cc1ccccc1): 439 nm
emission maximum (in ClCCl): 453 nm

CCC1=C(C)C2=C(c3ccc(-c4c5ccccc5c(-c5ccccc5)c5ccccc45)cc3)c3c(C)c(CC)c(C)n3[B-](F)(F)[N+]2=C1C
emission maximum (in CC#N): 534 nm
emission maximum (in CCCCCC): 536 nm
emission maximum (in CCO): 537 nm
emission maximum (in CN(C)C=O): 537 nm
emission maximum (in Cc1ccccc1): 539 nm
emission maximum (in ClCCl): 540 nm

c1ccc(-c2ccc(-c3cc(-c4ccc(-c5ccccc5)cc4)cc(-c4ccc(-c5ccccc5)cc4)c3)cc2)cc1
emission maximum (in C1COCCO1): 364 nm

C(=C\c1ccncn1)/c1ccc(-c2ccco2)cc1
emission maximum (in ClCCl): 401 nm

Cc1cc(-c2ccccc2)cc(C)[o+]1
emission maximum (in CC#N): 462 nm
emission maximum (in ClCCl): 434 nm

CCCCCCCCCCCCCCCCCCN1C(=O)c2ccc3c4ccc5c6c(ccc(c7ccc(c2c37)C1=O)c64)C(=O)N(CCCCCCCCCCCCCCCCCC)C5=O
emission maximum (in CN(C)C=O): 535 nm

O=CN1N=C(c2ccc(Br)cc2)C[C@@H]1c1ccccc1
emission maximum (in C1CCCCC1): 348 nm
emission maximum (in C1COCCO1): 352 nm
emission maximum (in CC#N): 351 nm
emission maximum (in CCO): 345 nm
emission maximum (in CCOC(C)=O): 350 nm
emission maximum (in CO): 350 nm
emission maximum (in CS(C)=O): 356 nm
emission maximum (in Cc1ccccc1): 349 nm
emission maximum (in ClC(Cl)(Cl)Cl): 351 nm

O=Cc1ccc(C2=Cc3ccccc3P2(=O)c2ccccc2)cc1 (stereo not drawn)
emission maximum (in ClCCl): 427 nm

CCCCCCCCc1ccc(-n2c3c(c4c2c2c(n4-c4ccc(CCCCCCCC)cc4)-c4ccccc4NB2c2ccccc2)B(c2ccccc2)Nc2ccccc2-3)cc1
emission maximum (in Cc1ccccc1): 400 nm

CC(C)c1ccc(-c2nc(-c3ccccc3)c3ccccn23)cc1
emission maximum (in CC#N): 478 nm

c1ccc(-p2c(-c3cccs3)cc3ccccc32)cc1 (stereo not drawn)
emission maximum (in C1CCOC1): 417 nm

COc1ccc(/C=C/c2cc(/C=C/c3ccc(OC)cc3)nc(/C=C/c3ccc4cc(OC)ccc4c3)n2)cc1
emission maximum (in C1CCOC1): 433 nm
emission maximum (in CC#N): 463 nm
emission maximum (in CC(C)=O): 445 nm
emission maximum (in CCCCCCC): 401 nm
emission maximum (in CS(C)=O): 471 nm
emission maximum (in Cc1ccccc1): 411 nm
emission maximum (in ClCCl): 443 nm

Nc1nc2c(ncn2[C@H]2C[C@H](O)[C@@H](CO)O2)c(=O)[nH]1
emission maximum (in O): 338.98 nm

CCCCN1C(=S)c2cccc3cccc(c23)C1=S
emission maximum (in Cc1ccccc1): 506 nm

O=c1c2ccccc2[nH]c2ccccc12
emission maximum (in CS(C)=O): 408 nm
emission maximum (in O): 416 nm
